Consider 14 compounds from publication PMC12668310, “High‐Throughput Synthesis and Screening of a Cyanimide Library Identifies Selective Inhibitors of ISG15‐Specific Protease mUSP18” (Angewandte Chemie (International Ed. in English), 2025).

Common to all, as to test: High-throughput screening, Ub-RhoMP, single dose 1.25 µM
What all share (format): biochemical

One assay concerns the target T1, UCHL5 (Homo sapiens, UniProt Q9Y5K5).
T1 construct: (1-329); purchased Novus biochemicals NBP1-72315
T1 sequence (Q9Y5K5 1-329): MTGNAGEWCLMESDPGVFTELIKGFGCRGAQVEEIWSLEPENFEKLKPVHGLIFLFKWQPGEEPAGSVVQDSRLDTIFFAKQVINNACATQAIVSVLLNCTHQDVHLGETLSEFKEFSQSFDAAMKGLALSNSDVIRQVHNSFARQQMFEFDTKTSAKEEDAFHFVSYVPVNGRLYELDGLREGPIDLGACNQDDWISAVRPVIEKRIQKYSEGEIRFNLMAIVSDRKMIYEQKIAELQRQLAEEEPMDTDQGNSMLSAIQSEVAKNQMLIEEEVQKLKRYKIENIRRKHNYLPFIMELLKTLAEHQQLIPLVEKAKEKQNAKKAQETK
Particulars: for %inhibition UCHL5: crude in-plate synthesized compound, 1.25 µM assuming full conversion; for inhibition at 1.25 µM: individual amine building block (plate NCN-5), read-out: BB %inhibition UCHL5. On the procedure: (§1) Since the in‐plate synthesis was conducted in 1536‐well Echo plates, the compounds could readily be transferred from these plates into 1536‐well assay plates using acoustic liquid dispensing (Figure 2a) and subjected to HTS. We screened the whole 7536 compound library against a panel of twelve enzymes, including three DUBs from the UCH family, two DUBs from the OTU family, five DUBs from the USP family, plus ISG15 protease USP18, and SUMO protease SENP1. Each compound was tested at a single dose of 1.25 µM, assuming full conversion (10 mM in DMSO of the formed products) during the in‐plate synthesis, using the fluorogenic assay described above. […] The compounds are sorted by the amine building blocks (BB1‐16), and within each BB, sorted by carboxylic acid (CA1‐471), thereby providing a comprehensive and systematic overview of the overall inhibition by each BB and CA combination. Some interesting patterns can be obtained from this map. […] Indeed, BB10 is the privileged scaffold for UCHL1 as it originates from UCHL1 inhibitor 5 (Figure 1). […] On the other hand, OTUD1 and USP32 show a much higher hit rate, and this is even more pronounced for USP30 and ISG15 protease mUSP18, each showing many active compounds distributed over several BB's.
(§2) Purified recombinant enzymes used in this study
(§3) High-throughput screening
(§4) The screens were performed at room temperature in “flat bottom, non-treated, black […]
(§5) µM. The compounds (10 nL each) were transferred from the 1 mM daughter plates to the […]
(§6) Four wells containing DMSO
(§7) (10 nL) and four wells containing NEM (10 mM final concentration) were used in each plate […]
(§8) solution (1.33x final concentration) was added to each well, followed by incubation for 30 min.
(§9) Next, 2 µL of a substrate solution (4x final concentration) was added to each well (Ub-RhoMP[2]
(§10) After 1h or 2h incubation the
(§11) The percentage inhibition was calculated for each well using the […]
(§12) Where FIx is the fluorescence intensity of each well, FIpos is the average fluorescence intensity of the positive (NEM) control wells, and FIneg is the average fluorescence intensity of the negative (DMSO) control wells.

The target in another assay is T2, USP24 (Homo sapiens, UniProt Q9UPU5).
T2 construct: (1-2620); His10; purchased Biotechne E-616
T2 sequence (Q9UPU5 whole entry): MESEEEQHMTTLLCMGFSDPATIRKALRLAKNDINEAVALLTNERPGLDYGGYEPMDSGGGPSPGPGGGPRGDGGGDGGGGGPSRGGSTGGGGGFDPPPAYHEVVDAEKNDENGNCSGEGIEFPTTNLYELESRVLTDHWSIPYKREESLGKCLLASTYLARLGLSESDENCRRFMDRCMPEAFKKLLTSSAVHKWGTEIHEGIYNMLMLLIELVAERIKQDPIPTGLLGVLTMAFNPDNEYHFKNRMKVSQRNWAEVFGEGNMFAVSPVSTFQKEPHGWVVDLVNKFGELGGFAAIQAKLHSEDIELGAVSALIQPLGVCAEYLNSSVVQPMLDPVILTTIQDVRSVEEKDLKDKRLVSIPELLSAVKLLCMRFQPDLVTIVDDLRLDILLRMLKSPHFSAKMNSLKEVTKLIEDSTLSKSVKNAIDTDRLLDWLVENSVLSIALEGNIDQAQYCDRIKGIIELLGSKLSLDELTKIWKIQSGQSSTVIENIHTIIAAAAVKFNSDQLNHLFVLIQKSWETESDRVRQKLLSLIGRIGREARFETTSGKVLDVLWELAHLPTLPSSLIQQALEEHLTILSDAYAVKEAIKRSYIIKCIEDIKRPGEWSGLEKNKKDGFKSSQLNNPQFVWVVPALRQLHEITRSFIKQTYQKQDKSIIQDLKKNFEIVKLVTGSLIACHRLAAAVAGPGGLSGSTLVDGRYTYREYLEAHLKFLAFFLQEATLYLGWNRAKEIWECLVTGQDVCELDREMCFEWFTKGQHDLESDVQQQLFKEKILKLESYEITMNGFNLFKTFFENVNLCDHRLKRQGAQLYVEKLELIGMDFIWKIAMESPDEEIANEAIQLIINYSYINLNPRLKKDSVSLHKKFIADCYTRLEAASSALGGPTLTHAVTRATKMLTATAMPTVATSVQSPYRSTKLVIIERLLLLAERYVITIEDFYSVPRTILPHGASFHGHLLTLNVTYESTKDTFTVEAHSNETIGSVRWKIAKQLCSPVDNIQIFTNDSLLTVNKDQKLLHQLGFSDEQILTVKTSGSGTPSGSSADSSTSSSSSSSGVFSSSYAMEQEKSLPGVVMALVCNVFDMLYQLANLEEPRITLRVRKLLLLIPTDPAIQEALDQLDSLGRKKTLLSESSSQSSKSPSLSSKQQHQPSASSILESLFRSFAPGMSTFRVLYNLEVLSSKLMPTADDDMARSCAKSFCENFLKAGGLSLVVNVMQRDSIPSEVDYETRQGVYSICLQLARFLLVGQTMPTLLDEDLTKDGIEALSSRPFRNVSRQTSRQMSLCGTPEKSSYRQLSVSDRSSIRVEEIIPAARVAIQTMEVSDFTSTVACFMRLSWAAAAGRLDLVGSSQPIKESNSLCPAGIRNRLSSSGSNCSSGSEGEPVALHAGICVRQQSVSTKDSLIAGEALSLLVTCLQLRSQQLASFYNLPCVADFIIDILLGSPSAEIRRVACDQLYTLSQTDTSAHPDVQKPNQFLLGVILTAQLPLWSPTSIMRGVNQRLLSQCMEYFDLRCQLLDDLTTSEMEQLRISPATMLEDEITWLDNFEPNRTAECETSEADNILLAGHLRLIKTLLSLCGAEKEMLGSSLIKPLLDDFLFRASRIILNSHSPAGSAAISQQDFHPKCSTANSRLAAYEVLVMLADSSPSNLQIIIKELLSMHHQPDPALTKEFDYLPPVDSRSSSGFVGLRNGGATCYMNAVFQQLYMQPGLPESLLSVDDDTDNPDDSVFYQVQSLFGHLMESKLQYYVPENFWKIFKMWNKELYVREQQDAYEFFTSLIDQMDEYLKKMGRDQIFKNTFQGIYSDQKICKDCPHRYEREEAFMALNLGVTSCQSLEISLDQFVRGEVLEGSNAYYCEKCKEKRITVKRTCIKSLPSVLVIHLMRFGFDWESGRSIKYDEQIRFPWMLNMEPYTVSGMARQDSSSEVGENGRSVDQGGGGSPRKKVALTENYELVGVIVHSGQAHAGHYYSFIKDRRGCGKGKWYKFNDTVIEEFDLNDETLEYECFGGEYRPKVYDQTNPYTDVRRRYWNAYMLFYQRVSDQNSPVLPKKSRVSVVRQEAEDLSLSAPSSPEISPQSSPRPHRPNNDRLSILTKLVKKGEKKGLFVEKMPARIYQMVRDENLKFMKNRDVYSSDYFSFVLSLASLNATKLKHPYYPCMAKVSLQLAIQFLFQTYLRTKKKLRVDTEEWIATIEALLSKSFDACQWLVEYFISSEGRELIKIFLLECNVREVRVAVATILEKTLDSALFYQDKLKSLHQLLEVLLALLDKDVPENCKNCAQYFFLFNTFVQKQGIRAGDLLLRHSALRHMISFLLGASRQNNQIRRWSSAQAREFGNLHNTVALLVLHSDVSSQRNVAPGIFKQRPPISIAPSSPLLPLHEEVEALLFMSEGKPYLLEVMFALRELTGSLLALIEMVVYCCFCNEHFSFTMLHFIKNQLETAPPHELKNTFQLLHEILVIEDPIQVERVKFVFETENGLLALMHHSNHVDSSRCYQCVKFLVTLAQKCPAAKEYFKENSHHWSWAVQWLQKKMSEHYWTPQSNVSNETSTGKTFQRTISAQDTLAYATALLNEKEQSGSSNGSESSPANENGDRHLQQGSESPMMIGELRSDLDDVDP
Particulars: for %inhibition USP24: crude in-plate synthesized compound, 1.25 µM assuming full conversion; for inhibition at 1.25 µM: individual amine building block (plate NCN-5), read-out: BB %inhibition USP24. On the procedure: as §1, §2, §3, §4, §5, §6, §7, §8, §9, §10, §11, §12

The target in another assay is T3, UCHL1 (Homo sapiens, UniProt P09936).
T3 construct: (1-223); made in house
T3 sequence (P09936 1-223): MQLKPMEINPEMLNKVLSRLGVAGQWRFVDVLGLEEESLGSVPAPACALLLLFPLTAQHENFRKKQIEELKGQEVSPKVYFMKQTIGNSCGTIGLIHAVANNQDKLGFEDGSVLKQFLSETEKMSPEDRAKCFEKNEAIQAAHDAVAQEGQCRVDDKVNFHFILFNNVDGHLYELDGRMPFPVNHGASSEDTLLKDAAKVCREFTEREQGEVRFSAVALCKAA
The settings on record: for %inhibition UCHL1: crude in-plate synthesized compound, 1.25 µM assuming full conversion; for inhibition at 1.25 µM: individual amine building block (plate NCN-5), read-out: BB %inhibition UCHL1. As to the method: as §1, §2, §3, §4, §5, §6, §7, §8, §9, §10, §11, §12

The target in a further assay is T4, USP8 (Homo sapiens, UniProt P40818).
T4 construct: (1-1118); purchased Ubiquigent 64-0053-050
T4 sequence (P40818 1-1118): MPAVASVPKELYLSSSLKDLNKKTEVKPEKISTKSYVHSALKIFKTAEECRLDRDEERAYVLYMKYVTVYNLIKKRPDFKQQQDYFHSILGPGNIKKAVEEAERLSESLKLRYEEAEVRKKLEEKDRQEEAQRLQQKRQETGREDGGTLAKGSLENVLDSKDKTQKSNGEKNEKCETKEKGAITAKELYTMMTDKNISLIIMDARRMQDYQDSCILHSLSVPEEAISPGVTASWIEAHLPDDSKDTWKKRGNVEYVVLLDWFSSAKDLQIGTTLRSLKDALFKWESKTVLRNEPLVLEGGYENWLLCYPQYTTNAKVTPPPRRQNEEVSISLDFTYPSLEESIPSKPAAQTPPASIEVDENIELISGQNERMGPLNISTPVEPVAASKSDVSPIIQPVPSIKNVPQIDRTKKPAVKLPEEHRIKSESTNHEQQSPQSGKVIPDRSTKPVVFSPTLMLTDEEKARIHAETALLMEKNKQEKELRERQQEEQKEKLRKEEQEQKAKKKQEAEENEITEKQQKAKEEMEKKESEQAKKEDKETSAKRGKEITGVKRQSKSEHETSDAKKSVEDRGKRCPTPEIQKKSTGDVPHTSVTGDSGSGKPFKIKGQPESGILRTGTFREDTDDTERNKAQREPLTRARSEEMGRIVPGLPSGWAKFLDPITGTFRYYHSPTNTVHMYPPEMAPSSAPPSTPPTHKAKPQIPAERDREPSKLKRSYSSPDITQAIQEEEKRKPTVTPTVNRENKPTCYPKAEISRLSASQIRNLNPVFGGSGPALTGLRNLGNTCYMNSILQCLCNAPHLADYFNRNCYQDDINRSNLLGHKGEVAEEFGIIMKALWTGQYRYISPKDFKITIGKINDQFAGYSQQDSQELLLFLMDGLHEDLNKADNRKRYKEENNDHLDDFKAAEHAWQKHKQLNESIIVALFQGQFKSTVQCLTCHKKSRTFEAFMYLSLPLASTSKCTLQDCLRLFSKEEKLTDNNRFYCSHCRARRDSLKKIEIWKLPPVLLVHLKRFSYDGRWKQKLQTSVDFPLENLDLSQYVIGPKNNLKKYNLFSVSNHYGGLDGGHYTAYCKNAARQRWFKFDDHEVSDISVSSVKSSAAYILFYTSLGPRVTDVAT
Particulars: for %inhibition USP8: crude in-plate synthesized compound, 1.25 µM assuming full conversion; for BB %inhibition USP8: individual amine building block (plate NCN-5). On the procedure: as §1, §2, §3, §4, §5, §6, §7, §8, §9, §10, §11, §12

A further assay concerns the target T5, USP32 (Homo sapiens, UniProt Q8NFA0).
T5 construct: (1-1604); His-tag (N); made in house
The settings on record: for %inhibition USP32: crude in-plate synthesized compound, 1.25 µM assuming full conversion; for inhibition at 1.25 µM: individual amine building block (plate NCN-5), read-out: BB %inhibition USP32. As to the method:
as §1, §2, §3, §4, §5, §6, §7, §8, §9, §10, §11, §12

T5 sequence (Q8NFA0 whole entry): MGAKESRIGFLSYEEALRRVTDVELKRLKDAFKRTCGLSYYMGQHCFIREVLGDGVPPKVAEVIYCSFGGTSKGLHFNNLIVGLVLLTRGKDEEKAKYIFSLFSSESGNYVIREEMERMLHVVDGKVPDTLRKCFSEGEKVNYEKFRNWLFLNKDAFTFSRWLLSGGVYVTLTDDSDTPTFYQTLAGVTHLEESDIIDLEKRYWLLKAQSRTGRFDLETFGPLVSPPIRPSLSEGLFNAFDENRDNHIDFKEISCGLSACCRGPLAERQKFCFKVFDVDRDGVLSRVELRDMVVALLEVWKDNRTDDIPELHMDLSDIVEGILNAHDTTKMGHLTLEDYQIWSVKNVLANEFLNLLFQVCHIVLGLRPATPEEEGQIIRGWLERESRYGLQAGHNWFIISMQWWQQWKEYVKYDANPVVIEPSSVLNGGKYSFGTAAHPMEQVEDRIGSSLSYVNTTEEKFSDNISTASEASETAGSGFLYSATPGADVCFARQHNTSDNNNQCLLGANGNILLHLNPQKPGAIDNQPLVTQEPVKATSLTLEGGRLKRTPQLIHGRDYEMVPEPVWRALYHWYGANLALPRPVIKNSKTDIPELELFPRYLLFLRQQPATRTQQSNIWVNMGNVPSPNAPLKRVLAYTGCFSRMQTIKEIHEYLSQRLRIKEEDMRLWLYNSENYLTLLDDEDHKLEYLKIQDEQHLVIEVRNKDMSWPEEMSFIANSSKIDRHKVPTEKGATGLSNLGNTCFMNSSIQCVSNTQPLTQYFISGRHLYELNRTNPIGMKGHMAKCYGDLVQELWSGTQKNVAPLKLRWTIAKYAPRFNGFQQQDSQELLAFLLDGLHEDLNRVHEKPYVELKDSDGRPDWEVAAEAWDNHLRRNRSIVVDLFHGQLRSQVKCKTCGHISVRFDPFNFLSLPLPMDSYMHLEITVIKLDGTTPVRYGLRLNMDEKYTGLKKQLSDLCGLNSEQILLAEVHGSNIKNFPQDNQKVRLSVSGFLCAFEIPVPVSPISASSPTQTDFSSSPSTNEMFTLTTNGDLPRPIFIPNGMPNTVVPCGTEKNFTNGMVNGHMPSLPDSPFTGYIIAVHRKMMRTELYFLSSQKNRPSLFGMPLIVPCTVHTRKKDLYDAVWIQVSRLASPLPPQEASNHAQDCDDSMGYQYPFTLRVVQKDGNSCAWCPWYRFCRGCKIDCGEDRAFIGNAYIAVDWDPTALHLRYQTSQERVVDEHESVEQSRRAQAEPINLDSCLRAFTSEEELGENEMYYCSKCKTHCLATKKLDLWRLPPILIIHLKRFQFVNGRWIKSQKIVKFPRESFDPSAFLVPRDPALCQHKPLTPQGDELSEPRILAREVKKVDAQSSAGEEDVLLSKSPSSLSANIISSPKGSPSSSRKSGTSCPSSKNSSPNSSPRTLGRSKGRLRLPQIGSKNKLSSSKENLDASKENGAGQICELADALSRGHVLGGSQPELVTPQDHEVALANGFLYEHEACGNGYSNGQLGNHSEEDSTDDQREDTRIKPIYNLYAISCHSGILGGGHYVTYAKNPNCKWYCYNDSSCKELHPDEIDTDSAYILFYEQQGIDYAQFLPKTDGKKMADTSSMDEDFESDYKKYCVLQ

`N#CN1CC[C@@H](NC(=O)c2nc(N3CCCC3)ncc2Cl)C1` [BB01CA90]: the “%inhibition UCHL5” value at UCHL5 was 6.9%. Also, the “%inhibition USP24” value at USP24 was 0.9%. Further, the “%inhibition UCHL1” value at UCHL1 is listed as 15.1%. For the same compound, on USP8, the “%inhibition USP8” value stood at 29.2%. Moreover, the “%inhibition USP32” value at USP32 is reported as 19.4%.
For `N#CN1CC[C@@H](NC(=O)C(Cc2c[nH]cn2)NS(=O)(=O)c2ccc(Cl)cc2)C1` (stereo partly shown) [BB01CA91] the same measures were 8.4%, -0.9%, 11.2%, 28.4% and 22.5%.
For `N#CN1CC[C@@H](NC(=O)Cc2csc(-c3cnccn3)n2)C1` [BB01CA92] the same measures were 6.2%, 3.2%, 8.8%, 32.5% and 21.1%.
For `N#CN1CC[C@@H](NC(=O)CCN(Cc2ccccc2)S(=O)(=O)c2c(Cl)cccc2Cl)C1` [BB01CA93] the same measures were 5.2%, 9.1%, 9.7%, 33.0% and 75.0%.
For the compound `N#CN1CC[C@@H](NC(=O)c2ncoc2-c2cccs2)C1` [BB01CA94], the “%inhibition UCHL5” value at UCHL5 came out at 4.4%. In addition, the “%inhibition USP24” value on USP24 is reported as -1.8%. For the same compound, the “%inhibition UCHL1” value on UCHL1 worked out at 8.0%. In addition, the “%inhibition USP8” value at USP8 was found to be 24.1%. The “%inhibition USP32” value on USP32 is on record as 15.3%.
As usually defined, the inhibition is the relative decrease from the control value, in per cent. In the case of `N#CN1CC[C@@H](N)C1` [BB1], the inhibition at 1.25 µM at UCHL5 is -4.7%; at USP24, 6.1%; on UCHL1 it was 2.6%; on USP32, 9.5%. On USP8, the “BB %inhibition USP8” value was 9.1%.
For `N#CN1CCC(N)CC1` [BB2] the same measures were -3.3%, 5.5%, 4%, 9% and 1.0%.
In the case of `N#CN1CC[C@H](N)C1` [BB3], the inhibition at 1.25 µM is -5.8% at UCHL5, -1.4% on USP24, 1.1% at UCHL1 and 8.4% at USP32. Also, the “BB %inhibition USP8” value at USP8 turned out to be 3.6%.
Take `N#CN1CCC[C@@H](N)C1` [BB4]: the inhibition at 1.25 µM on UCHL5 was -6.7%; at USP24, 0.8%; on UCHL1, 3.6%; at USP32 it was 4.7%. Moreover, the “BB %inhibition USP8” value at USP8 worked out at 5.3%.
On to `N#CN1CC(N)C1` [BB5], for which the inhibition at 1.25 µM came to 2.9% at UCHL5, 5% at USP24, 3.8% on UCHL1 and 5.3% on USP32. In addition, the “BB %inhibition USP8” value on USP8 came out at 1.7%.
For `N#CN1C[C@H]2C[C@@H](N)C[C@H]2C1` [BB6] the same measures were 2.5%, 3.1%, 0.4%, 6% and -1.3%.
For `N#CN1C[C@H]2C[C@H](N)C[C@H]2C1` [BB7] the same measures were -1.4%, -3.9%, 0.7%, 2.8% and -1.7%.
For `N#CN1CCC[C@H](N)C1` [BB8] the same measures were 4.6%, -0.279%, 1%, 1.3% and 1.5%.
As for `N#CN1CC[C@@H](NC(=O)c2ccc(CN)cc2)C1` [BB9], the inhibition at 1.25 µM on UCHL5 is -9.9%; at USP24 it was 0.33%; at UCHL1, -0.3%; on USP32 it was 2.8%. Besides, the “BB %inhibition USP8” value on USP8 is given as 20.0%.
